According to publication PMC9243654 (Frontiers in Nutrition, 2022):
Like-named read-outs stand apart in the source and are kept apart here.

What was measured:
[1] = in vitro
Method: The PAMPA-BBB assay was conducted according to the methodology followed by Di et al., with some modifications as described below ([15]). First, the BBB solution was prepared by dissolving 8 mg of PBL and 4 mg of cholesterol in 600 μl of n-dodecane. The initial donor solution was prepared by mixing 1 ml of extract (10 mg ml^−1 in EtOH) with 1 ml of buffer (PBS, pH = 7.4, 10 mM). The filter membrane of the donor plate was carefully coated with 5 μl of BBB solution. The acceptor plate was filled with 350 μl of buffer, and the donor plate was carefully assembled over the acceptor plate like a “sandwich.” Finally, the donor plate was filled with 350 μl of donor solution, covered, and incubated for 4 h at 37°C in the dark. After incubation time, 300 μl of the solution was taken from both plates, transferred to separate vials, and dried in the SpeedVac system at 40°C and 13 mbar pressure. Dried acceptor and donor solution were dissolved in 50 μl of pure EtOH before subjecting to UHPLC-Q-TOF-MS analysis. Permeability across in vitro BBB of the bioactive compound was measured according to Equation (1) ([25]), with some modifications in concentration rates.
(1) Pe=-ln[1-CA(t)/Ce]/A^*(1/VD+1/VA)^*t
Cequilibrium was calculated according to the following equation ([2]):
(2) Cequilibrium=[CD(t)*VD+CA(t)*VA]/(VD+VA)

[2] = ref PubChem database, cited from earlier work
[3] = PAMPA, pH 7.4, PAMPA-BBB log Pe (cm s−1)
[4] = PAMPA, pH 7.4, PAMPA-BBB log Pe, compound within LPLE (Nothofagus pumilio, lenga PLE extract), N.D = not detected in acceptor
[5] = compounds of RSFE extract, octanol-water partition coefficient
[6] = compound within LPLE (Nothofagus pumilio, lenga PLE extract), classes based on Könczöl et al.
[7] = compounds identified in LPLE extract
[8] = PAMPA, pH 7.4, PAMPA-BBB log Pe (cm s−1), compound within RSFE extract, 4 h, 37°C, PBS pH 7.4
[9] = PAMPA, pH 7.4, PAMPA-BBB log Pe (cm s−1), compound within T33 extract, 4 h, 37°C, PBS pH 7.4
[10] = compound within RSFE extract, 4 h, 37°C, PBS pH 7.4

COc1cc2ccc(=O)oc2cc1O [Scopoletin]
Papp at 4 h [1, 3]: 75.9 ×10⁻⁶ cm/s
Papp at 4 h [1, 4]: 28.2 ×10⁻⁶ cm/s

O=c1c(O[C@@H]2O[C@H](CO)[C@@H](O)[C@H](O)[C@H]2O)c(-c2ccc(O)cc2)oc2cc(O)cc(O)c12 [Kaempferol 3-O-β-D-glucoside]
Cross BBB potential ([1]; compound within KD extract): -
Log P ([2]; compounds of KD extract): 2.37

COc1ccc(-c2cc(=O)c3c(O)cc(OC)cc3o2)cc1 [4-Methoxytectochrysin]
Cross BBB potential ([1]; PAMPA): +++
PAMPA-BBB log Pe (cm s−1) ([1]; PAMPA, 4 h, pH 7.4): −4.22 cm s−1
Log P [2, 5]: 3.3

CC(C)c1cc2c(c(O)c1O)[C@@]1(C(=O)O)CCCC(C)(C)[C@@H]1CC2 [Carnosic acid]
Cross BBB potential ([1]; PAMPA): ++ (key: -: not detected in acceptor; +: log Pe > −6.5; ++: log Pe > −5.5; +++: log Pe > −4.5)
Papp [1, 3]: 13.5 ×10⁻⁶ cm/s

COc1ccc([C@@H]2CC(=O)c3c(O)cc(O[C@@H]4O[C@H](CO[C@@H]5O[C@@H](C)[C@H](O)[C@@H](O)[C@H]5O)[C@@H](O)[C@H](O)[C@H]4O)cc3O2)cc1O [Hesperidin]
Cross BBB potential ([1]; compound within ASFE extract): -
Cross BBB potential [1, 6]: -
Log P [2, 7]: −1.1
Log P ([2]; compounds of ASFE extract): −1.1

COc1ccc(-c2cc(=O)c3c(O)c(O)c(OC)cc3o2)cc1 [Ladanein]
Papp at 4 h [1, 8]: 141 ×10⁻⁶ cm/s
Cross BBB potential ([1]; compound within RSFE extract): +++ (log Pe > −4.5)
Log P [2, 5]: 2.0

CC(C)=CCc1cc(/C=C/C(=O)O)cc(CC=C(C)C)c1O [Artepillin C]
Cross BBB potential ([1]; PAMPA): +++
PAMPA-BBB log Pe (cm s−1) ([1]; PAMPA, 4 h, pH 7.4): −4.42 cm s−1
Log P [2, 5]: 5.4

O=C(O)[C@]1(O)C[C@@H](O)[C@@H](O)[C@H](O)C1 [Quinic acid]
Cross BBB potential ([1]; PAMPA): -
Papp at 4 h [1, 8]: 6.03 ×10⁻⁶ cm/s
Papp at 4 h [1, 9]: 3.63 ×10⁻⁶ cm/s
Log P ([2]; compounds of T33 extract): −2.4

COc1cc(/C=C/C(=O)O)cc(OC)c1O [Sinapic acid]
Cross BBB potential ([1]; compound within ASFE extract): -
Cross BBB potential ([1]; compound within KD extract): -
Cross BBB potential ([1]; compound within T33 extract): -
Log P [2, 7]: 1.5
Log P ([2]; compounds of ASFE extract): 1.5
Log P ([2]; compounds of KD extract): 1.5
Log P ([2]; compounds of T33 extract): 1.5

COc1ccc(-c2cc(=O)c3c(O)cc(O)cc3o2)cc1O [Diosmetin]
Cross BBB potential ([1]; PAMPA): ++ (key: -: not detected in acceptor; +: log Pe > −6.5; ++: log Pe > −5.5; +++: log Pe > −4.5)
Papp [1, 3]: 31.6 ×10⁻⁶ cm/s

COc1cc(-c2oc3cc(O)cc(O)c3c(=O)c2O[C@@H]2O[C@H](CO)[C@@H](O)[C@H](O)[C@H]2O)ccc1O [Isorhamnetin-3-O-glucoside]
Cross BBB potential ([1]; compound within RSFE extract): -
Log P [2, 5]: 0.7

COc1cc(/C=C/C(=O)O)ccc1O [Ferulic acid]
Cross BBB potential ([1]; PAMPA): ++ (key: -: not detected in acceptor; +: log Pe > −6.5; ++: log Pe > −5.5; +++: log Pe > −4.5)
PAMPA-BBB log Pe (cm s−1) ([1]; PAMPA, pH 7.4): −4.68 cm s−1
Cross BBB potential ([1]; compound within ASFE extract): -

COc1cc(C(=O)O)ccc1O [Vanillic acid]
Papp at 4 h ([1]; PAMPA, pH 7.4, PAMPA-BBB log Pe (cm s−1), compound within ASFE extract, 4 h, 37°C, PBS pH 7.4): 2.14 ×10⁻⁶ cm/s
Papp at 4 h ([1]; PAMPA, pH 7.4, PAMPA-BBB log Pe (cm s−1), compound within KD extract, 4 h, 37°C, PBS pH 7.4): 55 ×10⁻⁶ cm/s
Papp at 4 h [1, 4]: 1.35 ×10⁻⁶ cm/s
Cross BBB potential ([1]; compound within ASFE extract): + (log Pe > −6.5)
Cross BBB potential ([1]; compound within KD extract): +++ (log Pe > −4.5)
Cross BBB potential [1, 6]: + (log Pe > −6.5)
Log P [2, 7]: 1.4
Log P ([2]; compounds of ASFE extract): 1.4
Log P ([2]; compounds of KD extract): 1.4

Kalandaigremoside F
Cross BBB potential ([1]; compound within KD extract): -
Log P ([2]; compounds of KD extract): 7.2

CC(=O)O[C@H]1CC[C@]2(CO)[C@H]3CC[C@]4(C)[C@@H](c5ccc(=O)oc5)CC[C@]4(O)[C@@H]3CC[C@]2(O)C1 [Hellebrigenol-3-monoacetate]
Cross BBB potential ([1]; compound within KD extract): ++ (log Pe > −5.5)
PAMPA-BBB log Pe (cm s−1) ([1]; compound within KD extract, 4 h, 37°C, PBS pH 7.4): −4.70 cm s−1
Log P ([2]; compounds of KD extract): 1.6

CC(CC(=O)C[C@@H](C)[C@H]1C[C@H](O)[C@@]2(C)C3=C(C(=O)C[C@]12C)[C@@]1(C)CC[C@H](O)C(C)(C)[C@@H]1CC3)C(=O)O (some centres unmarked) [Ganolucidic acid B]
Cross BBB potential ([1]; compound within ASFE extract): -
Cross BBB potential [1, 6]: -
Log P [2, 7]: 3.8
Log P ([2]; compounds of ASFE extract): 3.8

Bersaldegenin-1,3,5-orthoacetate
Cross BBB potential ([1]; compound within KD extract): -
Log P ([2]; compounds of KD extract): 4.87

Kalandaigremoside B
Cross BBB potential ([1]; compound within KD extract): -
Log P ([2]; compounds of KD extract): 7.2

Oc1ccc(/C=C/c2cc(O)cc(O)c2)cc1 [Trans-resveratrol]
Cross BBB potential ([1]; PAMPA): -
Log P [2, 7]: 2.5
Log P ([2]; compounds of ASFE extract): 2.5

CC(C)c1cc2c(c(O)c1O)[C@@]13CCCC(C)(C)[C@@H]1C[C@@H]2OC3 [20-Deoxocarnosol]
Cross BBB potential ([1]; compound within RSFE extract): -
Log P [2, 5]: 4.6

Oc1cccc(O)c1O [Pyrogallol]
Cross BBB potential ([1]; PAMPA): -
Log P [2, 7]: 0.5

CCOC(=O)/C=C/c1ccc(O)c(O)c1 [Ethyl caffeate]
Papp at 4 h [1, 9]: 18.6 ×10⁻⁶ cm/s
Cross BBB potential ([1]; compound within T33 extract): ++ (log Pe > −5.5)

COc1c(O)cc2oc(-c3ccc(O)c(O)c3)c(O)c(=O)c2c1O [Patuletin]
Cross BBB potential ([1]; compound within KD extract): -
Log P ([2]; compounds of KD extract): 2.1

O=c1c(O)c(-c2cc(O)c(O)c(O)c2)oc2cc(O)cc(O)c12 [Myricetin]
Cross BBB potential ([1]; PAMPA): -

Desdimethyl-octahydro-iso- cohumulone
Cross BBB potential ([1]; compound within RSFE extract): +++ (log Pe > −4.5)
PAMPA-BBB log Pe (cm s−1) [1, 10]: −4.30 cm s−1
Log P [2, 5]: 3.8

COc1cc(O)c2c(=O)cc(-c3ccc(O)cc3)oc2c1 [Genkwanin]
Papp at 4 h [1, 3]: 9.55 ×10⁻⁶ cm/s

O=c1ccc2ccc(O)cc2o1 [Umbelliferone]
Papp at 4 h ([1]; PAMPA, pH 7.4): 38 ×10⁻⁶ cm/s
Cross BBB potential ([1]; compound within RSFE extract): +++ (log Pe > −4.5)

O=c1oc2c(O)c(O)cc3c(=O)oc4c(O)c(O)cc1c4c23 [Ellagic acid]
Cross BBB potential ([1]; PAMPA): -

C[C@H]1[C@H](C)CC[C@]2(C(=O)O)CC[C@]3(C)C(=CC[C@@H]4[C@@]5(C)C[C@@H](O)[C@H](O)[C@@](C)(CO)[C@@H]5CC[C@]43C)[C@H]12 [Asiatic acid]
Cross BBB potential ([1]; PAMPA): +++
Papp at 4 h [1, 3]: 64.6 ×10⁻⁶ cm/s

O=C(/C=C/c1ccc(O)c(O)c1)O[C@@H]1C[C@](O)(C(=O)O)C[C@@H](O)[C@H]1O [Caffeoylquinic acid (chlorogenic acid), Caffeoylquinic acid]
Papp at 4 h [1, 3]: 10.2 ×10⁻⁶ cm/s

COc1cc(C=O)ccc1O [Vanillin]
Papp at 4 h [1, 3]: 70.8 ×10⁻⁶ cm/s
Papp at 4 h [1, 4]: 33.1 ×10⁻⁶ cm/s

O=C(/C=C/c1ccc(O)c(O)c1)O[C@H](Cc1ccc(O)c(O)c1)C(=O)O [Rosmarinic acid]
Log P [2, 5]: 2.4
Log P ([2]; compounds of T33 extract): 2.4

O=c1cc(-c2ccc(O)c(O)c2)oc2cc(O)cc(O)c12 [Luteolin]
Papp at 4 h [1, 3]: 38 ×10⁻⁶ cm/s

Oc1cc(O)c2c(c1)O[C@H](c1ccc(O)c(O)c1)[C@H](O)[C@H]2c1c(O)cc(O)c2c1O[C@H](c1ccc(O)c(O)c1)[C@H](O)C2 [Procyanidin B2]
Cross BBB potential ([1]; PAMPA): -

O=c1c(O[C@@H]2O[C@H](CO)[C@@H](O)[C@H](O)[C@H]2O)c(-c2ccc(O)c(O)c2)oc2cc(O)cc(O)c12 [Isoquercitrin]
Cross BBB potential ([1]; PAMPA): -

C[C@@H]1O[C@@H](Oc2c(-c3ccc(O)cc3)oc3cc(O)cc(O)c3c2=O)[C@H](O)[C@H](O)[C@H]1O [Afzelin]
Cross BBB potential ([1]; PAMPA): -

C[C@@H]1O[C@@H](OC[C@H]2O[C@@H](Oc3c(-c4ccc(O)c(O)c4)oc4cc(O)cc(O)c4c3=O)[C@H](O)[C@@H](O)[C@@H]2O)[C@H](O)[C@H](O)[C@H]1O [Rutin]
Cross BBB potential ([1]; PAMPA): -

O=C(O)/C=C/c1ccc(O)c(O)c1 [Caffeic acid]
Cross BBB potential ([1]; PAMPA): -

O=C1C[C@@H](c2ccc(O)c(O)c2)Oc2cc(O)cc(O)c21 [Eriodictyol]
Log P [2, 5]: 2.0

COc1cc(C(=O)O)ccc1O[C@@H]1O[C@H](CO)[C@@H](O)[C@H](O)[C@H]1O [Vanillic acid-O-hexoside]
Cross BBB potential ([1]; compound within RSFE extract): +++ (log Pe > −4.5)
PAMPA-BBB log Pe (cm s−1) [1, 10]: −4.19 cm s−1

O=C(O)c1cc(O)c(O)c(O)c1 [Gallic acid]
Papp at 4 h [1, 4]: 69.2 ×10⁻⁶ cm/s
